Species on record: Rattus norvegicus
Experiment: Open TG-GATES - Regimen: Single
Assay type: toxicity, organism-based, Sprague-Dawley
Parameters: regimen Single, gender Male, age 6 weeks
Conditions: in vivo, po, route gavage; for gamma-GTP / ALP / AST / CRE / DBIL / GLC / IP / K / LDH / Na / PL / RALB / TBIL / TC / TP: tissue Plasma; for Bas / Eos / Lym / MCHC / MCV / Mono / Neu / RBC / Ret / WBC: tissue Blood; for KIDNEY_L / KIDNEY_R / KIDNEY_TOTAL: tissue Kidney; for LIVER: tissue Liver
[1] = 200 mg/kg, 3 h, dose level Middle
[2] = 200 mg/kg, 6 h, dose level Middle
[3] = 200 mg/kg, 9 h, dose level Middle
[4] = 200 mg/kg, 24 h, dose level Middle
[5] = 600 mg/kg, 3 h, dose level High
[6] = 600 mg/kg, 6 h, dose level High
[7] = 600 mg/kg, 9 h, dose level High
[8] = 600 mg/kg, 24 h, dose level High

For `CS(=O)(=O)O.Cc1ccc(NC(=O)c2ccc(CN3CCN(C)CC3)cc2)cc1Nc1nccc(-c2cccnc2)n1` [IMATINIB MESYLATE], the gamma-GTP (60 mg/kg, 24 h, dose level Low) was 0.9 IU/L, the Bas [1] was 0% and the Eos [1] was 0.6%. For the same molecule, the Lym [1] was 76.2%, the MCHC [1] was 32.5% and the MCV [1] was 63 fL. For the same molecule, the Mono [1] was 2.4%, the Neu [1] was 19.8% and the RBC [1] was 602.4 x10_4/ul. It also gave a Ret [1] of 10.1%, a WBC [1] of 94 x10_2/uL and a KIDNEY_L [1] of 0.8 g. The KIDNEY_R [1] was 0.9 g, the KIDNEY_TOTAL [1] was 1.7 g and the LIVER [1] was 8.5 g. It also gave an ALP [1] of 1473.2 IU/L, an AST [1] of 86.2 IU/L and a CRE [1] of 0.2 mg/dL. For the same molecule, the DBIL [1] was 0.014 mg/dL, the GLC [1] was 185 mg/dL and the IP [1] was 8.5 mg/dL. It also gave a K [1] of 3.9 meq/L, an LDH [1] of 224.6 IU/L and a Na [1] of 142.7 meq/L. For the same molecule, the PL [1] was 131.8 mg/dL, the RALB [1] was 4 g/dL and the TBIL [1] was 0.042 mg/dL. For the same molecule, the TC [1] was 75.8 mg/dL, the TP [1] was 5.4 g/dL and the gamma-GTP [1] was 0.8 IU/L. For the same molecule, the Bas [2] was 0%, the Eos [2] was 0% and the Lym [2] was 75.8%. The MCHC [2] was 32.7%, the MCV [2] was 63 fL and the Mono [2] was 1.8%. It also gave a Neu [2] of 21.6%, an RBC [2] of 605.6 x10_4/ul and a Ret [2] of 9.4%. It also gave a WBC [2] of 92.8 x10_2/uL, a KIDNEY_L [2] of 0.9 g and a KIDNEY_R [2] of 0.9 g. The KIDNEY_TOTAL [2] was 1.8 g, the LIVER [2] was 8.3 g and the ALP [2] was 1397.4 IU/L. The AST [2] was 83.8 IU/L, the CRE [2] was 0.2 mg/dL and the DBIL [2] was 0.014 mg/dL. The GLC [2] was 184.2 mg/dL, the IP [2] was 9.1 mg/dL and the K [2] was 3.8 meq/L. For the same molecule, the LDH [2] was 187.4 IU/L, the Na [2] was 139.7 meq/L and the PL [2] was 147.6 mg/dL. The RALB [2] was 4 g/dL, the TBIL [2] was 0.046 mg/dL and the TC [2] was 81.6 mg/dL. It also gave a TP [2] of 5.4 g/dL, a gamma-GTP [2] of 0.8 IU/L and a Bas [3] of 0%. The Eos [3] was 0%, the Lym [3] was 78.6% and the MCHC [3] was 33.1%. For the same molecule, the MCV [3] was 64.1 fL, the Mono [3] was 1% and the Neu [3] was 19.2%. The RBC [3] was 566.4 x10_4/ul, the Ret [3] was 10.1% and the KIDNEY_L [3] was 0.9 g. For the same molecule, the KIDNEY_R [3] was 0.9 g, the KIDNEY_TOTAL [3] was 1.8 g and the LIVER [3] was 7.8 g. It also gave an ALP [3] of 1450.6 IU/L, an AST [3] of 80.6 IU/L and a CRE [3] of 0.2 mg/dL. It also gave a DBIL [3] of 0.016 mg/dL, a GLC [3] of 180 mg/dL and an IP [3] of 9 mg/dL. For the same molecule, the K [3] was 4 meq/L, the LDH [3] was 197.8 IU/L and the Na [3] was 139.8 meq/L. For the same molecule, the PL [3] was 145.8 mg/dL, the RALB [3] was 4.2 g/dL and the TBIL [3] was 0.062 mg/dL. For the same molecule, the TC [3] was 82.6 mg/dL, the TP [3] was 5.5 g/dL and the gamma-GTP [3] was 0.9 IU/L. It also gave a Bas [4] of 0%, an Eos [4] of 0.6% and a Lym [4] of 81%. It also gave an MCHC [4] of 33%, an MCV [4] of 63.9 fL and a Mono [4] of 1.2%. It also gave a Neu [4] of 16.2%, an RBC [4] of 583.2 x10_4/ul and a Ret [4] of 7.9%. For the same molecule, the WBC [4] was 97.7 x10_2/uL, the KIDNEY_L [4] was 0.9 g and the KIDNEY_R [4] was 0.9 g. The KIDNEY_TOTAL [4] was 1.8 g, the LIVER [4] was 8.6 g and the ALP [4] was 1768.2 IU/L. For the same molecule, the AST [4] was 98.4 IU/L, the CRE [4] was 0.2 mg/dL and the DBIL [4] was 0.008 mg/dL. The GLC [4] was 180.4 mg/dL, the IP [4] was 7.5 mg/dL and the K [4] was 4 meq/L. It also gave an LDH [4] of 181.8 IU/L, a Na [4] of 143 meq/L and a PL [4] of 148.4 mg/dL. For the same molecule, the RALB [4] was 4.1 g/dL, the TBIL [4] was 0.042 mg/dL and the TC [4] was 79 mg/dL. The TP [4] was 5.8 g/dL, the gamma-GTP [4] was 0.8 IU/L and the Bas [5] was 0%. The Eos [5] was 1%, the Lym [5] was 74.2% and the MCHC [5] was 32.7%. It also gave an MCV [5] of 63.3 fL, a Mono [5] of 2.6% and a Neu [5] of 22.2%. The RBC [5] was 595.8 x10_4/ul, the Ret [5] was 9.3% and the WBC [5] was 88.6 x10_2/uL. The KIDNEY_L [5] was 0.9 g, the KIDNEY_R [5] was 0.9 g and the KIDNEY_TOTAL [5] was 1.8 g. It also gave an LIVER [5] of 8.9 g, an ALP [5] of 1505 IU/L and an AST [5] of 86 IU/L. The CRE [5] was 0.2 mg/dL, the DBIL [5] was 0.01 mg/dL and the GLC [5] was 185.4 mg/dL. It also gave an IP [5] of 9 mg/dL, a K [5] of 3.9 meq/L and an LDH [5] of 244.6 IU/L. The Na [5] was 143.3 meq/L, the PL [5] was 138.4 mg/dL and the RALB [5] was 4.2 g/dL. The TBIL [5] was 0.044 mg/dL, the TC [5] was 79 mg/dL and the TP [5] was 5.6 g/dL. It also gave a gamma-GTP [5] of 0.8 IU/L, a Bas [6] of 0% and an Eos [6] of 0.8%. For the same molecule, the Lym [6] was 67.8%, the MCHC [6] was 33.1% and the MCV [6] was 63.5 fL. The Mono [6] was 1.6%, the Neu [6] was 28.6% and the RBC [6] was 589.6 x10_4/ul. For the same molecule, the Ret [6] was 8.9%, the WBC [6] was 104.9 x10_2/uL and the KIDNEY_L [6] was 0.9 g. It also gave a KIDNEY_R [6] of 0.9 g, a KIDNEY_TOTAL [6] of 1.8 g and an LIVER [6] of 7.9 g. It also gave an ALP [6] of 1661.2 IU/L, an AST [6] of 88.2 IU/L and a CRE [6] of 0.2 mg/dL. For the same molecule, the DBIL [6] was 0.016 mg/dL, the GLC [6] was 180.4 mg/dL and the IP [6] was 8.9 mg/dL. For the same molecule, the K [6] was 3.9 meq/L, the LDH [6] was 553.8 IU/L and the Na [6] was 140 meq/L. It also gave a PL [6] of 159.4 mg/dL, an RALB [6] of 4.1 g/dL and a TBIL [6] of 0.048 mg/dL. It also gave a TC [6] of 91.6 mg/dL, a TP [6] of 5.3 g/dL and a gamma-GTP [6] of 0.8 IU/L. For the same molecule, the Bas [7] was 0%, the Eos [7] was 0% and the Lym [7] was 72.2%. It also gave an MCHC [7] of 32.6%, an MCV [7] of 63.6 fL and a Mono [7] of 1.6%. The Neu [7] was 25.2%, the RBC [7] was 592.6 x10_4/ul and the Ret [7] was 9.7%. For the same molecule, the KIDNEY_L [7] was 0.9 g, the KIDNEY_R [7] was 0.9 g and the KIDNEY_TOTAL [7] was 1.8 g. It also gave an LIVER [7] of 7.8 g, an ALP [7] of 1627 IU/L and an AST [7] of 85 IU/L. It also gave a CRE [7] of 0.2 mg/dL, a DBIL [7] of 0.016 mg/dL and a GLC [7] of 183.2 mg/dL. The IP [7] was 8.8 mg/dL, the K [7] was 3.8 meq/L and the LDH [7] was 180.8 IU/L. For the same molecule, the Na [7] was 140.1 meq/L, the PL [7] was 140.8 mg/dL and the RALB [7] was 4.2 g/dL. The TBIL [7] was 0.054 mg/dL, the TC [7] was 78 mg/dL and the TP [7] was 5.5 g/dL. For the same molecule, the gamma-GTP [7] was 0.8 IU/L, the Bas [8] was 0% and the Eos [8] was 0.8%. The Lym [8] was 76.4%, the MCHC [8] was 33.1% and the MCV [8] was 62.5 fL. For the same molecule, the Mono [8] was 2%, the Neu [8] was 20.4% and the RBC [8] was 584.2 x10_4/ul. It also gave a Ret [8] of 7.5%, a WBC [8] of 80.4 x10_2/uL and a KIDNEY_L [8] of 0.9 g. For the same molecule, the KIDNEY_R [8] was 0.9 g, the KIDNEY_TOTAL [8] was 1.9 g and the LIVER [8] was 7.8 g. The ALP [8] was 1838.6 IU/L, the AST [8] was 118.4 IU/L and the CRE [8] was 0.2 mg/dL. For the same molecule, the DBIL [8] was 0.016 mg/dL, the GLC [8] was 175.2 mg/dL and the IP [8] was 7.8 mg/dL. The K [8] was 4.1 meq/L, the LDH [8] was 227.6 IU/L and the Na [8] was 141.8 meq/L. For the same molecule, the PL [8] was 131.4 mg/dL, the RALB [8] was 4 g/dL and the TBIL [8] was 0.072 mg/dL. For the same molecule, the TC [8] was 72.6 mg/dL, the TP [8] was 5.6 g/dL and the gamma-GTP [8] was 0.9 IU/L.

From ChEMBL document CHEMBL3885861, “Open TG-GATES”
